Results published in article PMC6791019, “(−)-Epigallocatechin-3-gallate derivatives combined with cisplatin exhibit synergistic inhibitory effects on non-small-cell lung cancer cells” (Cancer Cell International, 2019).

Experiments:
[1] = test system: EGFR signaling pathway in NCI-H441 cells; assay: Western blotting of EGFR signaling pathway proteins; format: cell-based, human; settings: NCI-H441, western blot after 12 h
Method: (§1) Samples containing equal amounts of proteins as indicated in the text were resolved by SDS polyacrylamide gel electrophoresis and transferred to PVDF membranes. The membranes were blocked with 5% BSA at room temperature for 1 h and then probed with primary antibodies overnight at 4 °C and incubated with the HRP-conjugated secondary antibodies for 1 h at room temperature. HRP was detected using the Pro-light HRP Chemiluminescent Kit (Tiangen Biotech, Beijing, China) and FluorChem E System (ProteinSimple, Santa Clara, CA, United States).

Caco-2 cell monolayers = assay: Transport across Caco-2 cell monolayers; format: in vitro ADME, human; settings: Caco-2, 50 µg/mL, A→B
Method: (§2) Caco-2 cells were grown as epithelial monolayers, seeded onto fibrillar collagen-coated polyethylene terephthalate (PET) Corning transwell inserts (1.12 cm^2) with a pore size of 3 μm at a density of 2.0 × 10^5 cells/insert, and incubated at 37 °C in an atmosphere of 5% CO2 and 95% relative humidity in complete DMEM. The medium was replaced every 2 days with 0.5 mL medium in the apical (AP) side and 1.5 mL in the basolateral (BL) side over a period of 21 days. The integrity of the cell monolayer was determined by measuring the TEER (transepithelial electrical resistance) using an epithelial voltohmmeter (EVOM). The TEER values for each monolayer were measured every 2 days until they exceeded 350 Ω cm^2. To ensure the integrity of the Caco-2 monolayers, the TEER values were monitored before and after the experiments.
(§3) To measure the transport of EGCG and compound 3 across the Caco-2 cell monolayer, both sides of the transwell were equilibrated for 30 min with warm Hank’s balanced salt solution (HBSS). The transport buffer containing EGCG and compound 3 was added to either the apical (0.5 mL) or the basolateral (1.5 mL) side of the insert, while the receiving compartment contained the corresponding volume of transport buffer. After incubation for 30 or 60 min, 100 μL samples were taken from the receiving chamber and immediately replenished with an equal volume of pre-warmed HBSS. The samples were acidified with an equal volume of 5% formic acid and then frozen until LC–MS analysis.
(§4) The apparent permeability coefficients (Papp) of the compounds were calculated using the following equation: Papp=dQ/dt×1/A·C0, where dQ/dt is the amount of solute transported across the Caco-2 barrier in time dt, C0 is the solute concentration in the apical compartment at time zero, and A is the cross-sectional area of the epithelium in contact with the apical solution.

[2] = Transport across Caco-2 cell monolayers; format: in vitro ADME, human; settings: human; for Papp A→B at 30 min, 50 μg/mL / Papp A→B at 60 min, 50 μg/mL / Papp B→A at 30 min, 50 μg/mL / Papp B→A at 60 min, 50 μg/mL: Caco-2, 50 μg/mL; for Papp A→B at 30 min, 50 μg/mL / Papp A→B at 60 min, 50 μg/mL: apical to basolateral; for Papp B→A at 30 min, 50 μg/mL / Papp B→A at 60 min, 50 μg/mL: basolateral to apical; for Papp: Caco-2, summary of Table 1, read-out: apparent permeability coefficients (Papp), range over directions and times
Method: as §2, §3, §4

NCI-H441 cells [3] = assay: Cell cycle analysis by PI staining and flow cytometry; format: cell-based, human; settings: NCI-H441, 0, 50, 100, 150 μM
Method: Aliquots of 5 × 10^5 cells were harvested, washed with phosphate-buffered saline (PBS), and then fixed in 70% ethanol at 4 °C overnight. After fixation, the cells were washed twice with cold PBS and stained in binding buffer containing 1 µg/mL of propidium iodide (BD Biosciences) and RNase for 0.5 h. The samples were then analyzed by flow cytometry (BD FACSCalibur).

NCI-H441 xenograft = NCI-H441 xenograft model in nude mice; format: in vivo, BALB-C/nude mice; settings: for tumor growth compared with the control: compound 3 200 mg/kg per day, cDDP 2 mg/kg per 2 days, i.p., nude mice
Method: Twenty-four male BALB-C/nude mice were purchased from the Cavens Lab Animal (Changzhou, China). The mice were subcutaneously injected in the dorsal with NCI-H441 cells (4 × 10^6/0.2 mL PBS per mouse). The mice were randomly divided into four groups, including control, compound 3, cDDP, and compound 3 plus cDDP (n = 6, per group). The mice were treated with compound 3 (200 mg/kg per day) and cDDP (2 mg/kg per 2 days) alone or in combination. All drugs were given through intra-peritoneal injection. Tumour size was measured once every 2 days with a calipre (volume mm^3 = length × width × width/2). Body weight was recorded once every 2 days. After there weeks of treatment, all mice were euthanized by cervical dislocation and the tumors were excised into formalin, and portion of the tumor fresh frozen in liquid nitrogen for further processing and analysis.
Three micrometer sections were cut, deparaffinized in xylenes, rehydrated in ethanol, and washed in phosphate-buffered saline. The antigen was retrieved at 95 °C for 20 min in 0.01 M citrate buffer (pH 6.0). Then incubated with primary antibodies overnight at 4 °C, followed by incubation with the secondary antibody at RT for 1 h. The immunostaining was performed using DAB, and counterstained with hematoxylin.

A549 cells = assay: MTT cell proliferation assay, A549; format: cell-based, human; settings: 0-150 µM, 48 h
Method: (§5) The effects of the EGCG derivatives on the survival of NSCLC cells were determined using the MTT assay. A549, NCI-H441, and NCI-H1975 cells were seeded in 96-well plates (3 × 10^4 cells/well) and then treated with one of the EGCG derivatives alone (0, 30, 60, 90, 120, or 150 µM), cDDP alone (12 µM), or 12 μM cDDP plus one of the EGCG derivatives (100 µM) for 48 h. MTT was then added to the cells and the plates were incubated for a further 4 h. After removal of the culture medium, the produced MTT formazan crystals were dissolved with 150 µL DMSO and measured at 492 nm using a microplate reader. The percentage of inhibition was calculated as follows: inhibition ratio (IR, %) = (1 − OD(sample)/OD(control)) × 100%. The experiments were carried out in triplicate, and the IC50 (the concentration of drug that inhibits cell growth by 50%) values were determined.

NCI-H441 cells [4] = assay: MTT cell proliferation assay, NCI-H441; format: cell-based, human; settings: 0-150 µM, 48 h
Method: as §5

NCI-H441 cells [5] = assay: Annexin V-FITC/PI apoptosis assay by flow cytometry; format: cell-based, human; settings: NCI-H441, 48 h
Method: Cell apoptosis was quantified using an annexin V/propidium iodide (PI) detection kit (BD Biosciences, PA, USA) and flow cytometry. Cells (5 × 10^5/well) were plated in six-well dishes and then treated with the EGCG derivatives with or without cDDP. After the treatment, the collected cells were incubated in 100 µL of binding buffer and 5 µL of FITC annexin V and 10 µL of PI were added to the suspension. The mixtures were gently vortexed and then incubated for 15 min at room temperature in the dark before performing the flow cytometry measurements (BD FACSCalibur) within 1 h.

NCI-H1975 cells = assay: MTT cell proliferation assay, NCI-H1975; format: cell-based, human; settings: 0-150 µM, 48 h
Method: as §5

NCI-H441 cells [6] = assay: Western blotting of cell cycle and apoptosis proteins; format: cell-based, human; settings: NCI-H441, western blot, cDDP alone
Method: as §1

transepithelial transport rate, apical to basolateral, fold higher than EGCG (Caco-2 cell monolayers) [fold] | Papp A→B at 30 min, 50 μg/mL [2] [×10⁻⁶ cm/s] | Papp A→B at 60 min, 50 μg/mL [2] [×10⁻⁶ cm/s] | Papp B→A at 30 min, 50 μg/mL [2] [×10⁻⁶ cm/s] | Papp B→A at 60 min, 50 μg/mL [2] [×10⁻⁶ cm/s] | Papp [2] [×10⁻⁶ cm/s] | Compound | P-EGFR, P-AKT and P-ERK levels [1] | cell cycle distribution, effect of increasing doses (NCI-H441 cells [3]) | nude mouse body weight compared with the control group (NCI-H441 xenograft; compound 3 200 mg/kg per day i.p.) | tumor growth compared with the control (NCI-H441 xenograft) | proliferation of A549 cells (A549 cells) | proliferation of NCI-H441 cells (NCI-H441 cells [4]) | number of apoptotic cells compared to untreated control (NCI-H441 cells [5]) | proliferation of NCI-H1975 cells (NCI-H1975 cells) | levels of PCNA, p53, p21, cyclin D1 and cyclin E (NCI-H441 cells [6])
4.9 | 0.914 | 0.41 | 0.83 | 0.39 | 0.083 to 0.914 | O=C(O[C@@H]1Cc2c(OCc3cnnn3[C@@H]3O[C@H](CO)[C@@H](O)[C@H](O)[C@H]3O)cc(O)cc2O[C@@H]1c1cc(O)c(O)c(O)c1)c1cc(O)c(O)c(O)c1 [compound 3, (2R,3R)-7-Hydroxy-5-((1-((2R,3R,4S,5S,6R)-3,4,5-trihydroxy-6-(hydroxymethyl)tetrahydro-2H-pyran-2-yl)-1H-1,2,3-triazol-5-yl)methoxy)-2-(3,4,5-trihydroxyphenyl)chroman-3-yl 3,4,5-trihydroxybenzoate] | effectively inhibited these phosphorylation proteins in a dose-dependent manner | increased the proportion of cells in the S phase in a dose-dependent manner | did not reduce the nude mouse body weight | reduced tumor growth | the same effect was not observed | substantial dose-dependent growth inhibition | significantly increased in a concentration-dependent manner | the same effect was not observed | –
– | 0.189 | 0.32 | 0.89 | 0.083 | 0.083 to 0.914 | O=C(O[C@@H]1Cc2c(O)cc(O)cc2O[C@@H]1c1cc(O)c(O)c(O)c1)c1cc(O)c(O)c(O)c1 [EGCG, (−)-epigallocatechin-3-gallate] | – | – | – | – | – | – | – | – | –
– | – | – | – | – | – | [NH2][Pt]([NH2])([Cl])[Cl] [cDDP, cisplatin] | – | – | – | reduced tumor growth | – | – | – | – | minimal effects
